The record followed here is ChEMBL document CHEMBL1139567, “Synthesis and biological evaluation of sulfonamidooxazoles and beta-keto sulfones: selective inhibitors of 11beta-hydroxysteroid dehydrogenase type I” (Bioorg Med Chem Lett, 2005).

For test [1], the target named is 11-beta-hydroxysteroid dehydrogenase 1 (Homo sapiens, UniProt P28845). Put plainly: Inhibitory concentration against human 11-beta-hydroxysteroid dehydrogenase 1.
Test [2] addresses T1, 11-beta-hydroxysteroid dehydrogenase type 2 (Homo sapiens, UniProt P80365).
T1 sequence (P80365 whole entry): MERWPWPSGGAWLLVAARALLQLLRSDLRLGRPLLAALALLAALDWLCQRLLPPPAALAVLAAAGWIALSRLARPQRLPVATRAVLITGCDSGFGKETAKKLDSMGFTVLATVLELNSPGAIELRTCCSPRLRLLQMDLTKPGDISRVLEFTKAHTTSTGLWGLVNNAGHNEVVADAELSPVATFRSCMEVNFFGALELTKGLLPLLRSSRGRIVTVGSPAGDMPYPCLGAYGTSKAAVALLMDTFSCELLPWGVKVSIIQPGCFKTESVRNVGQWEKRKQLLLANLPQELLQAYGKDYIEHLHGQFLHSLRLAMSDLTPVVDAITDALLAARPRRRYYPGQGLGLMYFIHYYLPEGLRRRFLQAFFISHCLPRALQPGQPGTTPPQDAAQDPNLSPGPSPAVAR
Kind of test: Inhibitory concentration against human 11-beta-hydroxysteroid dehydrogenase 2.

Where only a bound is given, the exact number is not on record here.

Chain of 11-beta-hydroxysteroid dehydrogenase 1 (P28845 whole entry): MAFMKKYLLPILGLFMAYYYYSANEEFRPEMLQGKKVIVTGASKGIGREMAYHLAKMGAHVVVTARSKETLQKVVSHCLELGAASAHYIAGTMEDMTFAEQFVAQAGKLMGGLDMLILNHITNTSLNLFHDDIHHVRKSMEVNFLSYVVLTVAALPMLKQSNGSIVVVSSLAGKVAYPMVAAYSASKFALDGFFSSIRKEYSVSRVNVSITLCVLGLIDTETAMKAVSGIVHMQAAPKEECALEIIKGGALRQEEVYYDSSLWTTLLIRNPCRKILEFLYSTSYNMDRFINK

As a reminder, the IC50 is the concentration at which inhibition is half-maximal. `COC(=O)Cc1c(Cl)cccc1S(=O)(=O)Nc1nc(C)co1` returned an IC50 in test [1] greater than 100 µM.
In test [1], `Cc1coc(NS(=O)(=O)c2cccc(Cl)c2C)n1` gave a half-maximal inhibitory concentration (IC50) of 58.7 µM.
On to `CC(=O)N(C)c1ccc(S(=O)(=O)Nc2nc(C)c(C)o2)cc1`, for which the values for the half-maximal inhibitory concentration (IC50) in test [2] and in test [1] were greater than 200 µM and 100 µM, respectively.
Taken in the same sequence, the figures for `O=S(=O)(Nc1nc(-c2ccccc2)co1)c1ccccc1` were greater than 200 µM and 23 µM.
For the molecule `O=S(=O)(Nc1nc(-c2ccc(-c3ccccc3)cc2)co1)c1ccccc1`, the IC50 was greater than 200 µM in test [2] and 2.3 µM in test [1].
As to `Cc1c(Cl)cccc1S(=O)(=O)Nc1nc(-c2ccc(C#N)cc2)co1`, the values for the IC50 in test [2] and in test [1] were greater than 200 µM and 48 µM, respectively.
As to `O=C(CS(=O)(=O)c1ccccc1)c1ccc(C(F)(F)F)cc1`, the half-maximal inhibitory concentration (IC50) was greater than 200 µM in test [2] and 0.19 µM in test [1].
Taken in the same sequence, the figures for `Cc1c(Cl)cccc1S(=O)(=O)Nc1nc(-c2ccccc2)co1` were greater than 200 µM and 17.3 µM.
The molecule `Cc1coc(NS(=O)(=O)c2cccc(Cl)c2CC(=O)O)n1` registered an IC50 in test [1] greater than 100 µM.
`O=S(=O)(Nc1nc(-c2ccc(C(F)(F)F)cc2)co1)c1ccccc1`: the results for the IC50 in test [2] and in test [1] were greater than 200 µM and 9 µM, respectively.
Consider `CCN(CC)C(=O)Cc1csc(NS(=O)(=O)c2cccc(Cl)c2C)n1`, for which the IC50 was greater than 200 µM in test [2] and 1.5 µM in test [1].
